Key:
[1] = biological target: T1, TGF-beta receptor type-1 (Homo sapiens, UniProt P36897); test: Inhibition of human ALK5 kinase expressed in Sf9 cells
T1 sequence (P36897 whole entry): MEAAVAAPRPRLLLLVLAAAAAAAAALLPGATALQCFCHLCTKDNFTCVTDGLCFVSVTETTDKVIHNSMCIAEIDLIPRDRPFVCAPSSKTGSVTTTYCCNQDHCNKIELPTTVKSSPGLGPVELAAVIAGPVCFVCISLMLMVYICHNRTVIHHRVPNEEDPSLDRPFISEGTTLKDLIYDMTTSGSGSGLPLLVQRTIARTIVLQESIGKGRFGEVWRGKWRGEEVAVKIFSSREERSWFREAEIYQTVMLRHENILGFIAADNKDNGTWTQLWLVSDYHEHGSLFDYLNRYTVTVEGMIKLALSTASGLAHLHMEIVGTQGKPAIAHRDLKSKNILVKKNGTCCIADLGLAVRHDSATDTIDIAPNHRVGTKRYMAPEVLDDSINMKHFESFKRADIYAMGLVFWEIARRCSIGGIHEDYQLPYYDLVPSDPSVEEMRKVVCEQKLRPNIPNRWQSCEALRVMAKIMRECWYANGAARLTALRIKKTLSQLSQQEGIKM

[2] = biological target: Mitogen-activated protein kinase 14 (Homo sapiens, UniProt Q16539); test: Inhibition of GST-fused p38alpha
Mitogen-activated protein kinase 14, sequence (Q16539 whole entry, the tested form may be a part): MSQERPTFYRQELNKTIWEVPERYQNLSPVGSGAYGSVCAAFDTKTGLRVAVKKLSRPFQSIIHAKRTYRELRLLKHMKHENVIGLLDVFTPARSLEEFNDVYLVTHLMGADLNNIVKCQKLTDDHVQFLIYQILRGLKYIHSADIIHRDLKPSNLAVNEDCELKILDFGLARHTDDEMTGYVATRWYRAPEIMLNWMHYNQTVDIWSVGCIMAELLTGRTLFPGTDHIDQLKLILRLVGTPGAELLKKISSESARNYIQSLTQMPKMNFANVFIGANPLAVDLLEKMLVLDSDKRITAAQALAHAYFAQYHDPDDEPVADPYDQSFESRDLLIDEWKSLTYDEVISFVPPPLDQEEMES

[3] = biological target: T1, TGF-beta receptor type-1; test: Inhibition of TGF-beta-induced ALK5 in human HepG2 cells by luciferase assay; type: cell-based
[4] = Bioavailability in rat at 5 mg/kg, po; type: ADME, organism-based; conditions: in vivo
[5] = AUC in rat at 5 mg/kg, po; type: ADME, organism-based; design: dose 5 mg/kg, route oral; conditions: plasma
[6] = system: Rattus norvegicus; test: Inhibition of dimethylnitreosamine-induced collagen IA1 mRNA expression in rat liver at 5 mg/kg, po bid; type: functional
[7] = system: Rattus norvegicus; test: Inhibition of dimethylnitreosamine-induced collagen IA1 mRNA expression in rat liver at 10 mg/kg, po bid; type: functional

Compound | IC50 [1] [µM] | IC50 [2] [µM] | IC50 [3] [µM] | bioavailability [4] [%] | AUC [5] [ng·h/mL] | inhibition in vivo at 5 mg/kg [6] [%] | inhibition in vivo at 10 mg/kg [7] [%]
Cc1cccc(-c2nc(Nc3ccc4[nH]ncc4c3)c3ccccc3n2)n1 | 0.025 | > 10 | 0.09 | – | – | – | –
Cc1csc(-c2nc(Nc3ccncc3)c3ccccc3n2)n1 | 0.02 | > 15 | 0.342 | – | – | – | –
Cc1cccc(-c2nc(Nc3ccc4c(cnn4C)c3)c3ccccc3n2)n1 | 0.588 | > 10 | 0.794 | – | – | – | –
Cc1cccc(-c2nc(Nc3ccc4ncsc4c3)c3ccccc3n2)n1 | 0.646 | > 10 | > 5 | – | – | – | –
Cc1cccc(-c2nc(C)cc(Nc3ccncc3)n2)n1 | 0.093 | – | 0.745 | – | – | – | –
Cc1cccc(-c2nc(Nc3ccncc3)c3sccc3n2)n1 | 0.022 | – | 0.06 | – | – | – | –
Cc1cc(Nc2nc(-c3cccc(C)n3)nc3ccccc23)ccn1 | 0.199 | > 10 | 1.02 | – | – | – | –
Cc1cccc(-c2nc(Nc3ccc4[nH]nnc4c3)c3ccccc3n2)n1 | 3.72 | > 10 | > 5 | – | – | – | –
Cc1cccc(-c2nc(Nc3cccc(C(N)=O)c3)c3ccccc3n2)n1 | 0.263 | > 10 | 0.545 | – | – | – | –
Cc1cccc(-c2nc(Nc3ccncc3)c3c(C)csc3n2)n1 | 0.016 | – | 0.318 | – | – | – | –
c1ccc(-c2nc(Nc3ccncc3)c3ccccc3n2)cc1 | 0.194 | 1.27 | 2.47 | – | – | – | –
Cc1cccc(-c2nc(Nc3ccncc3)c3ccccc3n2)n1 | 0.025 | 6.72 | 0.095 | 40 | 524 | 66 | 73
Clc1cccc(-c2nc(Nc3ccncc3)c3ccccc3n2)c1 | 0.049 | > 15 | 1.61 | – | – | – | –
Cc1cccc(-c2nc(Nc3ccncn3)c3ccccc3n2)n1 | 0.04 | > 10 | 0.06 | – | – | – | –
